Test results from patent publication US5985937A, “Use of 2,4-distributed phenol derivatives as 5-lipoxygenase inhibitors” (priority 1994, dated 1999).
Entries after “also recorded” stand apart in the source; their conditions may differ.

How the values were obtained:
bacterial strains = experiment: mutagenic activity in four bacterial strains; set-up: species or system bacteria
[1] = tested on: canine seborrheic dermatitis; experiment: clinical trial on canine seborrheic dermatitis; assay type: in vivo, dog; set-up: key to Evolution, etiology idiopathic / Evolution, etiology demodex / Evolution, etiology follicular cyst / Evolution, etiology pyoderma / Evolution, etiology dermatomycosis / Evolution, etiology allergic to fleas / Evolution, etiology hypothyroidism / Evolution, etiology leishmaniosis: +++: very good response, clinically cured; ++: good response, marked lowering in the clinical signs; +: moderate response, improvement; -: negative response or no apparent improvement; key to Evolution, etiology dermatophytes: +++: very good response, total recovery; ++: good response, functionability recovery; +: moderate response, improvement; -: negative response or no apparent improvement
Experimental: The animals had been diagnosed to suffer from seborrheic dermatitis, and the diagnosis was confirmed by a biopsy. The treatment consisted of a weekly bath with a 2% Bobel-24 shampoo and evaluation of the treatment after 15 days. The efficiency of the treatment was analyzed evaluating the following therapeutic symptoms; removal of scabs and scales, greasiness reduction, sheborrheic odor reduction, relieve of the pruritus, and antiinflammatory effect. […] In view of the results the following conclusions were reached: […]

herpes zoster = experiment: in vivo activity in patients with herpes zoster; set-up: species or system human (patients); conditions: of 21 patients; 15 mg/day intramuscular injection, a month
Description: The 2,4-disubstituted phenol derivatives of the present invention are anti-herpetic agents in vivo, since they eliminate the symptoms of patients suffering from different types of herpes simplex (genital herpes, herpes of mouth and lips, recurrent herpes), and of patients suffering from herpes zoster. There is no relapse after leaving the treatment. The products are active both intramuscularly and topically, the first via being preferred.
A total of 21 patients with clear symptoms of herpes zoster were treated with 15 mg/day of Bobel-24, via intramuscular injection, during a month. The results concerning the disappearance of the symptoms were the following: excellent in 18 cases, good in 2 cases, and regular in 1 case.

5-lipoxygenase (5-LO) = target: T1, 5-lipoxygenase (5-LO) (Homo sapiens, UniProt P09917); experiment: 5-LO inhibiting activity in human polymorphonuclear leukocytes ([14C]-arachidonic acid, A23187; HPLC of eicosanoids); assay type: cell-based
T1 construct: endogenous in cells; host or cells: human polymorphonuclear leukocytes from donor blood
T1 sequence (P09917 1-674): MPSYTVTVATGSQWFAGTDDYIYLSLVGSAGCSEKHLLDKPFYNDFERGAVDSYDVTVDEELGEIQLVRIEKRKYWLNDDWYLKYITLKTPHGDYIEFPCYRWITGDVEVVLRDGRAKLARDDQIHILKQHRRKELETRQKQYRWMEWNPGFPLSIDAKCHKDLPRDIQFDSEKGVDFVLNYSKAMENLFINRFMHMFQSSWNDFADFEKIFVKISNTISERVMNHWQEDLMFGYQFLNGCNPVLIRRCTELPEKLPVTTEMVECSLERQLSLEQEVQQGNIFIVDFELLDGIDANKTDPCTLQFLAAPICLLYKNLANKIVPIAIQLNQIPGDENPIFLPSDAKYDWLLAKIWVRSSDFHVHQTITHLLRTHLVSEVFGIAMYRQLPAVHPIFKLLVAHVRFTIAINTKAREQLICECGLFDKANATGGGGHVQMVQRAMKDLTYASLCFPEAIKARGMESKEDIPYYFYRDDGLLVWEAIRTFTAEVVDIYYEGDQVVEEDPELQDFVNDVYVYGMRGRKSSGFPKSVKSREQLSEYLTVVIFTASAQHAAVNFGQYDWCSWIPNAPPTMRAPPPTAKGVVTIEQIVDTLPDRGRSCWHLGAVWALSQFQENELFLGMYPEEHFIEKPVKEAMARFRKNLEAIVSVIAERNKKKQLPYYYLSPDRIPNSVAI
Experimental: (§1) In order to show the 5-LO inhibiting activity of the products of the present invention, a specific test based on human polymorphonuclear leukocytes is chosen.
5-LO Inhibiting Activity in Polymorphonuclear Leukocytes
Blood was obtained from donors which had not received medication during the ten days previous to the extraction. The blood was treated with an anticoagulant (ACD-A) and was centrifuged at 200 g during 12 min at room temperature, separating the supernatant. A solution of Dextran T-500 in physiological serum was added to the pellet, in order to obtain a final concentration of 0.6% w/v, and was allowed to sediment during 40 min. The supernatant was centrifuged at 180 g during 10 min at room temperature. The pellet was resuspended in 5 ml of Hank's buffer, pH 7.4. After the addition of 3 ml of Lymphoprep, the suspension was centrifuged at 450 g during 30 min, and the layers of supernatant were discarded. The next step was the lysis of the erythrocytes present by adding 2 ml of a saline solution. The resulting volume was adjusted to 10 ml with Hank's buffer, pH 7.4. The solution was centrifuged during 10 min at 180 g; the supernatant was discarded and the resulting pellet was resuspended in 1-2 ml of Hank's buffer, pH 7.4. The cellular density was determined using a haemocytometer using the procedure of microcollection Unopette to determine the levels of platelet contamination. Cellular density was adjusted to 2×10^7 cells/ml with Hank's buffer, pH 7.4 and CaCl2 was added to a final concentration of 1.5 mM.
Aliquots (0.5 ml) of the polymorphonuclear leukocytes suspensions, obtained as described in part (a), were incubated during 5 min at 37° C. in the absence (control) and in the presence of three different concentrations of each drug. Afterwards an ethanol solution of [^14 C]-arachidonic acid and A23187 ionophore was added to obtain a final concentration of 10 and 5 μM, respectively. After 5 min of incubation the reaction was stopped by addition of 0.5 ml of ice-cold ethanol. Samples were centrifuged during 2 min at 1500 g, and the supernatants were kept at -80° C. until analyzed. Controls were carried out using the polymorphonuclear leukocyte suspensions aliquots in the presence of the solvent (DMSO) only.
The analysis of the products from the transformation of arachidonic acid through the action of the lipoxygenase (these products being the eicosanoids) was carried out using high pressure liquid chromatography (HPLC), in a reverse phase column (Ultrasphere-ODS, Beckman), injecting 500 μl of the supernatants obtained from the incubations. Elution was carried out using an isocratic mix of mathanol:water:triethylamine:trifluoroacetic acid, 75:25:0.05:0.10, with a flux of 1 ml/min. Detection was carried out with a radioactivity detector with a liquid scintillation cell on-line coupled with the column.

cyclooxygenase = conditions: in words; cited from earlier work
[2] = tested on: lactatedehydrogenase (LDH); experiment: liberation of lactatedehydrogenase (LDH) into the medium; conditions: check for cellular lysis
Description: as §1

[3] = weekly bath 2% shampoo, 15 days, Scotty T 4 years

SMILES: Oc1c(I)cc(I)cc1I [Bobel-24, 2,4,6-triiodophenol]
- mutagenic activity (bacterial strains): No mutagenic activity
- secondary or adverse effects (mucosal or skin irritation, unpleasant smells) ([1]; 2% shampoo, topical): absence of secondary or adverse effects
- scabs, greasiness, seborrheic odor, erithema and pruritus ([1]; 2% shampoo, all animals except one with dermatophytosis): a lowering of the scabs, disappearance of the greasiness and the seborrheic odor, disappearance of the erithema and the pruritus was observed
- result in idiopathic seborrheic dermatitis ([1]; 2% shampoo, improvement similar to oral therapy of corticoids): excellent
- result in secondary seborrheic dermatitis ([1]; Bobel-24 shampoo): the shampoo improves the aspect of the fur, but does not combat the ethiological agent responsible for the disease
- Evolution, etiology hypothyroidism ([1]; weekly bath 2% shampoo, 15 days, Cocker A 9 years): ++
- Evolution, etiology leishmaniosis ([1]; weekly bath 2% shampoo, 15 days, Cocker S 8 years): ++
- Evolution, etiology demodex ([1]; weekly bath 2% shampoo, 15 days, Mongrel 4 years): ++
- Evolution, etiology allergic to fleas [1, 3]: ++
- Evolution, etiology dermatophytes [1, 3]: -
- Evolution, etiology follicular cyst ([1]; weekly bath 2% shampoo, 15 days, Yorkshire 7 years): ++
- Evolution, etiology idiopathic ([1]; weekly bath 2% shampoo, 15 days, b367 Cocker A 13, b393 Cocker S 15, b394 Cocker S 12 years): +++
- Evolution, etiology pyoderma ([1]; weekly bath 2% shampoo, 15 days, b373 Pekinese 2, b396 German shepherd 10 years): ++
- Evolution, etiology dermatomycosis ([1]; weekly bath 2% shampoo, 15 days, b381 Schnauzer 3, b387 German shepherd 1 year): ++
- cases with excellent result, herpes zoster (herpes zoster): 18 cases
- cases with good result, herpes zoster (herpes zoster): 2 cases
- cases with regular result, herpes zoster (herpes zoster): 1 cases
- IC50 (5-lipoxygenase (5-LO)): 10 µM
- products derived from 5-LO biosynthesis (chromatogram) (5-lipoxygenase (5-LO); 25 μM, arachidonic acid 10 μM, FIG. 2): practically complete disappearance of the products derived from 5-LO biosynthesis
- 15-HETE and 12-HETE formation (5-lipoxygenase (5-LO); 25 μM, arachidonic acid 10 μM, due to contaminating platelets): increment in 15-HETE and 12-HETE
- concentration of biosynthesis products versus concentration of the drug (5-lipoxygenase (5-LO); LTB4, 6-trans-LTB4, 5-HETE, 20-OH-LTB4, FIGS. 3 and 4): decreased in approximately linear with the concentration of the drug used
- concentration required for a given inhibition relative to benoxaprofen or ketaconozale (5-lipoxygenase (5-LO); ratio from IC50): approximately one tenth; also recorded: ten times smaller
- inhibition at 25 µM (5-lipoxygenase (5-LO); read-out: 5-LO inhibitory activity, approximate inhibition percentage): 100%
- gradient of decrease of 5-LO products with concentration, compared with the other two drugs (5-lipoxygenase (5-LO); versus benoxaprofen and ketoconazole, FIGS. 3 and 4): gradients were greater
- cyclooxygenase inhibiting activity (cyclooxygenase): some cyclooxygenase inhibiting activity
- LDH liberation into the medium [2]: cannot be attributed to cellular lysis
